Source: US20240024488A1, “COMPOUNDS AND USES THEREOF” (Foghorn Therapeutics Inc., priority 2020, published 2024)

How the values were obtained:
[1] = target: T1, HiBit-BRG1 fusion protein (Homo sapiens, UniProt P51532); test: HiBiT-BRG1 cell-based degradation assay (Nano-Glo HiBiT Lytic Detection, 24 h); conditions: HeLa cell line expressing HiBit-BRG1 and LgBit; for Dmax: read-out: BRG1 HiBit Degradation Maximum (%); for DC50: read-out: BRMG1 HiBit Degradation IC50
T1 construct: expressed in transfected cells
T1 sequence (P51532 whole entry, the tested form may be a part): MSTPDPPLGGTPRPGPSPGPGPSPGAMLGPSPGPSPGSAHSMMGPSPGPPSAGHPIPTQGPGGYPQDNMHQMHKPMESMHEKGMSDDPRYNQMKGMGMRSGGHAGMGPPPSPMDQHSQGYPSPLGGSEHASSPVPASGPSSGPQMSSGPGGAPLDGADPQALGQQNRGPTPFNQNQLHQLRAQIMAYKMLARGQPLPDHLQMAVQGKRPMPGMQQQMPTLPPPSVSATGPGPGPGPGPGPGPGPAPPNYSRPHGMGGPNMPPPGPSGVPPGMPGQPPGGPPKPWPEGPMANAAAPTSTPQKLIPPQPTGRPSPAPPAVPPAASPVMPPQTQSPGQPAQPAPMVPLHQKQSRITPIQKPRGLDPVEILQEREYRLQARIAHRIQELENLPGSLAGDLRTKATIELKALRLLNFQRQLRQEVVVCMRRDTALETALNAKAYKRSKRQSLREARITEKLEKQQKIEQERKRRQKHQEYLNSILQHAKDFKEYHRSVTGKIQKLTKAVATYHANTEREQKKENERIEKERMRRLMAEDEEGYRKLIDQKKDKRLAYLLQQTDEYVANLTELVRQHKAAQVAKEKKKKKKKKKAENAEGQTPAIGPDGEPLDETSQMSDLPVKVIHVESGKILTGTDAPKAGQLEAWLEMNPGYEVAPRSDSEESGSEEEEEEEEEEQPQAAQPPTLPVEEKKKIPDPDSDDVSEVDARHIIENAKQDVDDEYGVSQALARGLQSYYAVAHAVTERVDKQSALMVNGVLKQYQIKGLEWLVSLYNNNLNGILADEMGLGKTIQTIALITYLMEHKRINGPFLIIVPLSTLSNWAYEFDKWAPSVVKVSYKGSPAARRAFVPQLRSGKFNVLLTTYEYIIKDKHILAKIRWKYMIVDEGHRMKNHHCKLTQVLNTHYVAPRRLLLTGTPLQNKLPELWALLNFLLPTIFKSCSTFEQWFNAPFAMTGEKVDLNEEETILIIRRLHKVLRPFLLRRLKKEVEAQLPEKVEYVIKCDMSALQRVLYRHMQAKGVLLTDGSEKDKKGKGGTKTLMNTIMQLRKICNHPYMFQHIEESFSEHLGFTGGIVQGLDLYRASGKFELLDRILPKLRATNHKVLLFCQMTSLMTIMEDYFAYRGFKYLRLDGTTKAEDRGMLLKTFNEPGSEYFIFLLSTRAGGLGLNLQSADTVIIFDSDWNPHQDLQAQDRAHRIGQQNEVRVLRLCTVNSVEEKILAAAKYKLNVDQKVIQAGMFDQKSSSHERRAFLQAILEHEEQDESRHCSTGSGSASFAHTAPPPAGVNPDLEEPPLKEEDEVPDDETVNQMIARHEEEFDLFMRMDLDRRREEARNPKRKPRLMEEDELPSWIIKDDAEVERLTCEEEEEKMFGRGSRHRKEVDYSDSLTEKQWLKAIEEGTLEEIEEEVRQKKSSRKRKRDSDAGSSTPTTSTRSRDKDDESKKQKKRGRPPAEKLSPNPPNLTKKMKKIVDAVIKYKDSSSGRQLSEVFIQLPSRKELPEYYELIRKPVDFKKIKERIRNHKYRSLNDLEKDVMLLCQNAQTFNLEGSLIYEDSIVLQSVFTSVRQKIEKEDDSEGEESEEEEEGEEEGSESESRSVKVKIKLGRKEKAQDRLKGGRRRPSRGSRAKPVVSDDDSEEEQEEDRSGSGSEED
Summary of the method: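 Luminescence from Nano-Glo HiBiT lytic detection, read after 24 h compound exposure, scored degradation in a stable HeLa HiBiT-BRG1/LgBit line seeded at 5000 cells/well. DMSO wells defined 0% and 2 μM known BRM/BRG1 degrader wells defined full degradation.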

HiBit-BRM fusion protein = target: T2, HiBit-BRM fusion protein (Homo sapiens, UniProt P51531); test: HiBiT-BRM cell-based degradation assay (Nano-Glo HiBiT Lytic Detection, 24 h); conditions: HeLa cell line expressing HiBiT-BRM; for DC50: read-out: BRM HiBit Degradation IC50
T2 construct: expressed in transfected cells
T2 sequence (P51531 whole entry, the tested form may be a part): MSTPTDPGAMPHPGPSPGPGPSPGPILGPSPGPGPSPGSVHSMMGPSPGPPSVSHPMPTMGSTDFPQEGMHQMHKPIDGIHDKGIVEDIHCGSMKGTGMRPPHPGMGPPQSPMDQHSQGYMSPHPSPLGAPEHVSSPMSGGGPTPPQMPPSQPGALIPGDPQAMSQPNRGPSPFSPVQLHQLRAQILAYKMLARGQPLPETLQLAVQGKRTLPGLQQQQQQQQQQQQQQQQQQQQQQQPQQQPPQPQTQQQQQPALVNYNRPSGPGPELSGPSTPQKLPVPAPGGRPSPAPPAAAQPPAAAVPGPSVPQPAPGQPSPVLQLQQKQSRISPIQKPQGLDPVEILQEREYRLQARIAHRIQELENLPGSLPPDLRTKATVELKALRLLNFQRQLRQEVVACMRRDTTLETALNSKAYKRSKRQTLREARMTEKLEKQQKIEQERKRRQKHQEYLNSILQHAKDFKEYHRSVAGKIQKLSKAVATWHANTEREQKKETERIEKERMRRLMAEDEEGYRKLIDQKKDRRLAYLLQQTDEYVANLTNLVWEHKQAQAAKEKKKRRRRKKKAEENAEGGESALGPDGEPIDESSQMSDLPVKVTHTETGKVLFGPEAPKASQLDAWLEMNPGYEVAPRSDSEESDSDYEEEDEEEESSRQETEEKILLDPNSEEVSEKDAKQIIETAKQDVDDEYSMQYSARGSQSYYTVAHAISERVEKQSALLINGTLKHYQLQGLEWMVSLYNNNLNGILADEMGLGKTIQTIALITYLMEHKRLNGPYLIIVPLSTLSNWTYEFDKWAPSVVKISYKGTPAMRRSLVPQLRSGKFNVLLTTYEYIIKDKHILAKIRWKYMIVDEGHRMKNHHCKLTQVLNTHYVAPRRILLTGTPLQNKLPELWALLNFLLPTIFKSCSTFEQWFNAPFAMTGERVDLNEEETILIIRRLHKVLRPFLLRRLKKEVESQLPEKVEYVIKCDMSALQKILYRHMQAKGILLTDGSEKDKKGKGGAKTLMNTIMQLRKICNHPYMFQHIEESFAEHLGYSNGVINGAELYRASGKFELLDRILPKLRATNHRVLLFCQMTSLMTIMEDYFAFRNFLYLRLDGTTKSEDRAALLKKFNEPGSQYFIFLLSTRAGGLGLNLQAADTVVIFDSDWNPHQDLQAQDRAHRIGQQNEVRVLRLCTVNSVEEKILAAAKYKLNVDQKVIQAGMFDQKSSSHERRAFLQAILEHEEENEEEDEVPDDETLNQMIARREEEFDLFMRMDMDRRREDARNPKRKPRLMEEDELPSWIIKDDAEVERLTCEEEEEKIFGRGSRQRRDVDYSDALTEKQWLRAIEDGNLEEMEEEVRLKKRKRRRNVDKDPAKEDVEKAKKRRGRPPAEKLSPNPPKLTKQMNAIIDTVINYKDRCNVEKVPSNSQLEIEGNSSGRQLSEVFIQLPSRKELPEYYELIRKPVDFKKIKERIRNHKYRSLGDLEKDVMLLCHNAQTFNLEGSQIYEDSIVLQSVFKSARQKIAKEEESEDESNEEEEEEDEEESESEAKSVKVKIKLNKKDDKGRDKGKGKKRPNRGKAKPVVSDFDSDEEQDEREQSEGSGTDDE
Summary of the method: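 Percent BRM loss was derived from HiBiT luminescence relative to DMSO-treated cells and cells given 2 μM of a known BRM/BRG1 degrader. Treatment lasted 24 h in HiBiT-BRM HeLa cells, with a top final concentration of 30 μM.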

| Dmax [1] [%] | DC50 [1] [nM] | DC50 (HiBit-BRM fusion protein) [nM] | Compound | BRM HiBit Degradation Maximum (%) (HiBit-BRM fusion protein) |
| --- | --- | --- | --- | --- |
| < 50 | – | > 100 | Cc1ncsc1-c1ccc([C@H](C)NC(=O)[C@@H]2C[C@@H](O)CN2C(=O)[C@@H](c2cc(OCCN3CC(c4cc5cc(-c6ccccc6O)nnc5[nH]4)C3)no2)C(C)C)cn1 (single isomer, unassigned) [Compound 219] | A (“A” indicates maximum degradation ≥ 75%) |
| < 50 | – | – | Cc1ncsc1-c1ccc([C@H](C)NC(=O)[C@@H]2C[C@@H](O)CN2C(=O)[C@@H](c2cc(OCCN3CCC[C@H]3c3c[nH]c4nnc(-c5ccccc5O)cc34)no2)C(C)C)cc1 (single isomer, unassigned) [Compound 227] | C (“C” indicates maximum degradation < 50%) |
| < 50 | – | – | Cc1ncsc1-c1ccc([C@H](C)NC(=O)[C@@H]2C[C@@H](O)CN2C(=O)[C@@H](c2cc(OCCN3CCC[C@@H]3c3c[nH]c4nnc(-c5ccccc5O)cc34)no2)C(C)C)cc1 (single isomer, unassigned) [Compound 228] | C (“C” indicates maximum degradation < 50%) |
| < 50 | – | > 1000 | Cc1ncsc1-c1ccc([C@H](C)NC(=O)[C@@H]2C[C@@H](O)CN2C(=O)[C@@H](c2cc(OCCN3CC[C@@H](c4c(C)[nH]c5nnc(-c6ccccc6O)cc45)C3)no2)C(C)C)cc1 (single isomer, unassigned) [Compound 232] | C (“C” indicates maximum degradation < 50%) |
| > 75 | > 10 | > 10 | Cc1ncsc1-c1ccc([C@H](C)NC(=O)[C@@H]2C[C@@H](O)CN2C(=O)[C@@H](c2cc(N3CCN(CC45CC(c6cc7cc(-c8ccccc8O)nnc7[nH]6)(C4)C5)CC3)no2)C(C)C)cc1 (single isomer, unassigned) [Compound 233] | A (“A” indicates maximum degradation ≥ 75%) |
| < 50 | – | > 100 | Cc1ncsc1-c1ccc([C@H](C)NC(=O)[C@@H]2C[C@@H](O)CN2C(=O)[C@@H](c2cc(N3CCN(C(=O)C(=O)N4CC(c5cc6cc(-c7ccccc7O)nnc6[nH]5)C4)CC3)no2)C(C)C)cc1 (single isomer, unassigned) [Compound 234] | A (“A” indicates maximum degradation ≥ 75%) |
| < 50 | – | – | Cc1ncsc1-c1ccc([C@H](C)NC(=O)[C@@H]2C[C@@H](O)CN2C(=O)[C@@H](c2cc(OCCCN3CC(c4cc5cc(-c6ccccc6O)nnc5[nH]4)C3)no2)C(C)C)cc1 (single isomer, unassigned) [Compound 237] | C (“C” indicates maximum degradation < 50%) |
| < 50 | – | > 10 | Cc1ncsc1-c1ccc([C@H](C)NC(=O)[C@@H]2C[C@@H](O)CN2C(=O)[C@@H](c2cc(OCCN3CC[C@H](c4c(C)[nH]c5nnc(-c6ccccc6O)cc45)C3)no2)C(C)C)cc1 (single isomer, unassigned) [Compound 241] | B (“B” indicates maximum degradation ≥ 50%) |

The next lines start with the compound.

| Compound | Dmax [1] [%] | DC50 [1] [nM] | DC50 (HiBit-BRM fusion protein) [nM] | BRM HiBit Degradation Maximum (%) (HiBit-BRM fusion protein) |
| --- | --- | --- | --- | --- |
| Cc1ncsc1-c1ccc(CNC(=O)[C@@H]2C[C@@H](O)CN2C(=O)[C@@H](NC(=O)CNC(=O)[C@@H]2CCc3[nH]c4nnc(-c5ccccc5O)cc4c3C2)C(C)(C)C)cc1 (single isomer, unassigned) [Compound 197] | < 50 | – | – | C (“C” indicates maximum degradation < 50%) |
| Cc1ncsc1-c1ccc([C@H](C)NC(=O)[C@@H]2C[C@@H](O)CN2C(=O)[C@@H](c2cc(OCCN3CC(CCc4[nH]c5nnc(-c6ccccc6O)cc5c4C)C3)no2)C(C)C)cc1 (single isomer, unassigned) [Compound 198] | > 75 | > 100 | > 100 | A (“A” indicates maximum degradation ≥ 75%) |
| Cc1ncsc1-c1ccc([C@H](C)NC(=O)[C@@H]2C[C@@H](O)CN2C(=O)[C@@H](c2cc(OCCN[C@H]3CCc4[nH]c5nnc(-c6ccccc6O)cc5c4C3)no2)C(C)C)cc1 (single isomer, unassigned) [Compound 200] | < 50 | – | > 10 | A (“A” indicates maximum degradation ≥ 75%) |
| Cc1ncsc1-c1ccc([C@H](C)NC(=O)[C@@H]2C[C@@H](O)CN2C(=O)[C@H](c2cc(C3CCN(C(=O)c4cc5cc(-c6ccccc6O)nnc5[nH]4)CC3)no2)C(C)C)cc1 (single isomer, unassigned) [Compound 201] | < 50 | – | – | C (“C” indicates maximum degradation < 50%) |
| Cc1ncsc1-c1ccc([C@H](C)NC(=O)[C@@H]2C[C@@H](O)CN2C(=O)[C@H](c2cc(CCCN3CC(c4cc5cc(-c6ccccc6O)nnc5[nH]4)C3)no2)C(C)C)cc1 (single isomer, unassigned) [Compound 202] | < 50 | – | – | C (“C” indicates maximum degradation < 50%) |
| Cc1ncsc1-c1ccc([C@H](C)NC(=O)[C@@H]2C[C@@H](O)CN2C(=O)[C@@H](c2cc(C3CCN(C(=O)c4cc5cc(-c6ccccc6O)nnc5[nH]4)CC3)no2)C(C)C)cc1 (single isomer, unassigned) [Compound 203] | < 50 | – | > 100 | A (“A” indicates maximum degradation ≥ 75%) |
| Cc1ncsc1-c1ccc([C@H](C)NC(=O)[C@@H]2C[C@@H](O)CN2C(=O)[C@@H](c2cc(CCCN3CC(c4cc5cc(-c6ccccc6O)nnc5[nH]4)C3)no2)C(C)C)cc1 (single isomer, unassigned) [Compound 204] | < 50 | – | > 100 | A (“A” indicates maximum degradation ≥ 75%) |
| Cc1ncsc1-c1ccc(CNC(=O)[C@@H]2C[C@@H](O)CN2C(=O)[C@H](c2cc(OCCN3CC(c4cc5cc(-c6ccccc6O)nnc5[nH]4)C3)no2)C(C)C)cc1 (single isomer, unassigned) [Compound 207] | < 50 | – | – | C (“C” indicates maximum degradation < 50%) |
| Cc1ncsc1-c1ccc(CNC(=O)[C@@H]2C[C@@H](O)CN2C(=O)[C@@H](c2cc(OCCN3CC(c4cc5cc(-c6ccccc6O)nnc5[nH]4)C3)no2)C(C)C)cc1 (single isomer, unassigned) [Compound 209] | < 50 | – | > 10 | A (“A” indicates maximum degradation ≥ 75%) |
| Cc1ncsc1-c1ccc([C@H](C)NC(=O)[C@@H]2C[C@@H](O)CN2C(=O)[C@H](c2cc(OCCN3CC(c4cc5cc(-c6ccccc6O)nnc5[nH]4)C3)no2)C(C)C)cn1 (single isomer, unassigned) [Compound 218] | < 50 | – | – | C (“C” indicates maximum degradation < 50%) |
| Cc1ncsc1-c1ccc([C@H](C)NC(=O)[C@@H]2C[C@@H](O)CN2C(=O)[C@@H](NC(=O)CCCCCCCCC(=O)N2CC(c3cc4cc(-c5ccccc5O)nnc4[nH]3)C2)C(C)(C)C)cc1 [Compound 1, (2S,4R)-4-hydroxy-1-((S)-2-(10-(3-(3-(2-hydroxyphenyl)-7H-pyrrolo[2,3-c]pyridazin-6-yl)azetidin-1-yl)-10-oxodecanamido)-3,3-dimethylbutanoyl)-N—((S)-1-(4-(4-methylthiazol-5-yl)phenyl)ethyl)pyrrolidine-2-carboxamide] | < 50 | – | > 100 | A (“A” indicates maximum degradation ≥ 75%) |
| Cc1ncsc1-c1ccc(CNC(=O)[C@@H]2C[C@@H](O)CN2C(=O)[C@@H](NC(=O)CCCCCCCCC(=O)N2CC(c3cc4cc(-c5ccccc5O)nnc4[nH]3)C2)C(C)(C)C)cc1 [Compound 2, (2S,4R)-4-hydroxy-1-((S)-2-(10-(3-(3-(2-hydroxyphenyl)-7H-pyrrolo[2,3-c]pyridazin-6-yl)azetidin-1-yl)-10-oxodecanamido)-3,3-dimethylbutanoyl)-N-(4-(4-methylthiazol-5-yl)benzyl)pyrrolidine-2-carboxamide] | < 50 | – | > 100 | A (“A” indicates maximum degradation ≥ 75%) |
| Cc1ncsc1-c1ccc(CNC(=O)[C@@H]2C[C@@H](O)CN2C(=O)[C@@H](NC(=O)CCCCCCC(=O)N2CC(c3cc4cc(-c5ccccc5O)nnc4[nH]3)C2)C(C)(C)C)cc1 [Compound 3, (2S,4R)-4-hydroxy-1-((S)-2-(8-(3-(3-(2-hydroxyphenyl)-7H-pyrrolo[2,3-c]pyridazin-6-yl)azetidin-1-yl)-8-oxooctanamido)-3,3-dimethylbutanoyl)-N-(4-(4-methylthiazol-5-yl)benzyl)pyrrolidine-2-carboxamide] | < 50 | – | > 1000 | B (“B” indicates maximum degradation ≥ 50%) |
| Cc1ncsc1-c1ccc(CNC(=O)[C@@H]2C[C@@H](O)CN2C(=O)[C@@H](NC(=O)CCCCCCCCCCC(=O)N2CC(c3cc4cc(-c5ccccc5O)nnc4[nH]3)C2)C(C)(C)C)cc1 [Compound 4, (2S,4R)-4-hydroxy-1-((S)-2-(12-(3-(3-(2-hydroxyphenyl)-7H-pyrrolo[2,3-c]pyridazin-6-yl)azetidin-1-yl)-12-oxododecanamido)-3,3-dimethylbutanoyl)-N-(4-(4-methylthiazol-5-yl)benzyl)pyrrolidine-2-carboxamide] | < 50 | – | > 100 | A (“A” indicates maximum degradation ≥ 75%) |
